Results on 1 compound are retold here after US20070203073A1 (priority 2005, published 2007).

The subject of this test is SARS-CoV S protein. Format: cell-based.

For `CC(=O)N[C@@H](CC(C)C)C(=O)N[C@@H](CC(C)C)C(=O)N[C@H](C=O)CCCNC(=N)N` [leupeptin], the “effect on cell-cell fusion” value is reported as “reduced”.
